Reference: patent US10030042B2, “Synthesis of bicyclic nucleosides” (MiRagen Therapeutics, Inc., priority 2014, dated 2018)
Entries after “also recorded” stand apart in the source; their conditions may differ. Oligonucleotides are written 5' to 3', each unit as a sugar letter and its base; * is a phosphorothioate linkage, no mark a phosphodiester; rarer units and linkages stand in square brackets, end groups in braces. Plain capitals give the bases only. [aminoLNA-N] = amino locked nucleic acid nucleoside (N: the base); l = locked nucleic acid (LNA); d = 2'-deoxy (DNA)

Experiments:
[1] = system: RNA Complement; settings: Table 3, cited from earlier work; for Tm: DNA 9mer, phosphate backbone, RNA complement, literature values
[2] = system: miR-208a; test: Dual-luciferase reporter assay in HeLa cells stably expressing miR-208a; type: cell-based, human; settings: FIG. 4; renilla/firefly luminescence, 24 hours after transfection, in words
Experimental: A HeLa cell line stably expressing miR-208a was generated. Specifically, a miRNA expression vector (Cell BioLabs, Inc.) expressing miR-208a was transfected into HeLa cells. Cells were then selected using a puromycin selection screen and clones which had detectable miR-208a expression as measured by qPCR were isolated (Ct value=˜30).
The cells were plated in a black-walled 96 well plate with 10,000 cells per well. After twenty-four hours following plating, the cells were transfected with a dual-luciferase plasmid containing the miR-208a binding site in the 3′ UTR of the renilla gene and various miR-208a inhibitors (compounds M-11919 (SEQ ID NO:5), M-11920 (SEQ ID NO:6), and M-10101 (SEQ ID NO:10)). Compound M-10591 was a non-targeting control. The cells were incubated for 24 hours at 37° C. and then both firefly (as a transfection normalization) and renilla levels were measured by luminescence using the Dual-Luciferase Reporter Assay System (Promega). Data was normalized to cells treated with only the miR-208a dual luciferase plasmid (psi check 208a).

[3] = system: mature human miR-208a (22 nucleotide RNA complement); test: Duplex melting temperature (Tm) of anti-208a oligonucleotides annealed to complementary RNA; type: binding; settings: for Tm: RNA complement; for ΔTm, DNA: difference to fully DNA phosphodiester 10931
Experimental: The melting temperature (Tm) of modified 16 nucleotide phosphodiester strands were determined and compared to the Tm of identical 16 nucleotide sequences having natural phosphodiester DNA nucleotides. Specifically, the relative aminoCBBN melting temperature (Tm) compared to the 2′-deoxynucleoside or oxoCBBN nucleoside with the same nucleobase was determined on a per incorporation basis by determining the difference between the melting temperature of the amino-modified 16 nucleotide length phosphodiester strand and that of the identical 16 nucleotide sequence utilizing either the 2′-deoxynucleoside or oxoCBBN phosphodiester DNA nucleotide. Tm differences of substitutions were compared only when they were placed in the same position of the sequence.
For example, the modified anti-208a oligonucleotides were annealed to the complementary sequence, twenty-two nucleotides in length, comprised of RNA nucleosides and a phosphate backbone. The complementary sequence was identical to the endogenous mature miRNA. Thermal denaturation temperatures (Tm) were measured as a maximum of the first derivative plot of melting curvex (A260 vs. Temp). The duplexes were constituted at 1 μM in a 0.9% NaCl buffer. Temperature was ramped from 25° C. to 95° C. at 1° C./min and OD's at 260 nm were read once per 30 seconds. Tm values are averages of at least two measurements.
Duplex melting temperatures for various modifications of a 16 nucleotide sequence, complementary to a nucleotide sequence of mature human miR-208a were measured using a Varian Cary 1E UV-Vis Spectrophotometer. Anti-miRNA 208a oligonucleotide sequences tested included a fully DNA phosphodiester (compound M-10931 (SEQ ID NO:9)), four DNA phosphodiester oligonucleotides with 1, 2 or 3 aminoCBBN thymidine residues in place of dT residues (compounds M-11915 (SEQ ID NO: 1), M-11916 (SEQ ID NO:2), M-11917 (SEQ ID NO:3), and M-11918 (SEQ ID NO:4)), mixed 9 LNA/7 DNA phosphorothioate oligonucleotide (compound M-10101 (SEQ ID NO:10)), and 2 mixed LNA/DNA/aminoCBBN phosphorothioate oligonucleotides where LNA thymidines of the parent compound, compound M-10101 (SEQ ID NO: 10), were replaced with either 1 or 2 aminoCBBN residues (compounds M-11920 (SEQ ID NO:6) and M-11919 (SEQ ID NO:5)). Duplexes were constituted at 1 μM in 0.9% NaCl. Temperature was ramped from 25° C. to 95° C. at 1° C./min and OD's at 260 nm were read once per 30 seconds.

[4] = Table 3, PS backbone 10101-like
[5] = Table 3, PS backbone, versus parent 10101
[6] = Table 1, phosphate backbone, duplex 1 μM in 0.9% NaCl

dG; IT; dG; dA; IT; dA; IT; dG; dC (DNA dGlTdGdAlTdAlTdGdC) [DNA_9mer_PO_3LNA-T, literature DNA 9mer phosphodiester with three LNA-T]
Tm [1]: 50 °C

lCs.dTs.dTs.dTs.lTs.lTs.dGs.lCs. dTs.lCs.lGs.dTs.lCs.dTs.abTs.lA [Compound M-11920]
miR-208a inhibition activity [2]: slightly less activity compared to the other two inhibitors
Tm [3, 4]: 85.125 °C
ΔTm, parent [3, 5]: −1.575 °C
ΔTm/mod [3, 5]: −0.7875 °C/modification
Affinity for the miR-208a RNA (Tm data, in words) ([3]; comparison of M-11920 with M-11919): less affinity for the miR-208a RNA than the M-11919

dC; dT; dT; dT; dT; dT; dG; dC; dT; dC; dG; dT; dC; dT; dT; dA (DNA CTTTTTGCTCGTCTTA; unmodified DNA) [Compound M-10931, reference compound]
ΔTm, DNA ([3]; Table 1): 0 °C
Tm [3, 6]: 53.1 °C

dG; aIT; dG; dA; aIT; dA; aIT; dG; dC (DNA dG[aminoLNA-T]dGdA[aminoLNA-T]dA[aminoLNA-T]dGdC) [DNA_9mer_PO_3aminoLNA-T, literature DNA 9mer phosphodiester with three aminoLNA-T]
Tm [1]: 47 °C
ΔTm, parent ([1]; aminoLNA 9mer versus LNA 9mer): −1 °C
ΔTm/mod ([1]; aminoLNA 9mer versus LNA 9mer): −1 °C/modification

bC.bT.bT.bT.bT.bT.dG.bC.bT.bC. dG.bT.bC.bT.bT.dA [Compound M-10924]
ΔTm, DNA ([3]; Table 1): 36.7 °C
ΔTm/mod ([3]; Table 1, per modification, versus DNA): 2.8 °C/modification
Tm [3, 6]: 89.8 °C

lCs.dTs.dTs.dTs.abTs.abTs.dGs. lCs.dTs.lCs.lGs.dTs.lCs.dTs.lTs.lA [Compound M-11919]
miR-208a inhibition activity [2]: comparable activity as compound M-10101; also recorded: retains all activity of the optimized M-10101
Tm [3, 4]: 80.04 °C
ΔTm, parent [3, 5]: −6.66 °C
ΔTm/mod [3, 5]: −6.66 °C/modification

ICs; dTs; dTs; dTs; ITs; ITs; dGs; ICs; dTs; ICs; IGs; dTs; ICs; dTs; ITs; IA [Compound M-10101, reference compound]
Tm [3, 4]: 86.7 °C
